Reference: patent US10532995B2, “Substituted pyrazole compounds as serine protease inhibitors” (VERSEON CORPORATION, priority 2015, dated 2020)

The compounds below were run against T1, Human thrombin (Homo sapiens, UniProt P00734) (assay: Thrombin protease activity inhibition, chromogenic substrate S-2238). Details: 3 nM thrombin, 125 μM S-2238, 10 min pre-incubation, RT.
T1 construct: purchased Haematologic Technologies Inc
Format: biochemical
Method: The thrombin activity reported herein (e.g., Table A) was obtained as follows. […] Thrombin was assayed in buffer containing 0.05 M Tris (pH 7.4), 0.015 M NaCl and 0.01% PEG-8000. The final concentration of enzyme used was 3 nM thrombin. […] All assays were performed in 96-well microtiter plates at room temperature (RT). […] Inhibitor IC50 values were determined by adding test compound as ten point, three-fold serial dilutions in buffer solution, as known in the art. The plate was read at 10 minutes after substrate addition. The IC50 was calculated by plotting the percent (%) inhibition against compound concentration and fitting the data to a constrained four parameter sigmoidal curve, as known in the art.

Row | IC50 [nM] | Structure (SMILES)
1 | < 100 | CS(=O)(=O)N1C2CCC1CC(c1cc(NCc3ccc(Cl)s3)n(C(=O)c3cscn3)n1)C2 (stereo not shown) [Entry 225, N-[(5-chlorothiophen-2-yl)methyl]-3-8-methanesulfonyl-8-azabicyclo[3.2.1]octan-3-yl-1-(1,3-thiazole-4-carbonyl)-1H-pyrazol-5-amine]
2 | < 100 | C=CCOC(=O)N1CCCC(c2cc(NCc3ccc(Cl)s3)n(C(=O)C(C)(C)C)n2)CC1 (stereo not shown) [Entry 261, prop-2-en-1-yl 4-(5-[(5-chlorothiophen-2-yl)methyl]amino-1-(2,2-dimethylpropanoyl)-1H-pyrazol-3-yl)azepane-1-carboxylate]
3 | < 100 | COCC(C)(C)C(=O)n1nc(C2(C)CCN(C(=O)OC(C)(C)C)CC2)cc1NCc1ccc(Cl)s1 [Entry 298, tert-butyl 4-(5-[(5-chlorothiophen-2-yl)methyl]amino-1-(3-methoxy-2,2-dimethylpropanoyl)-1H-pyrazol-3-yl)-4-methylpiperidine-1-carboxylate]
4 | < 100 | COc1ccc(C(=O)n2nc(C3CCCN3)cc2NCc2ccc(Cl)s2)c(OC)c1 (stereo not shown) [Entry 148, N-[(5-chlorothiophen-2-yl)methyl]-1-(2,4-dimethoxybenzoyl)-3-(pyrrolidin-2-yl)-1H-pyrazol-5-amine]
5 | > 100000 | CN(C)C(=O)N1CCC(c2cc(NCc3ccc(Cl)s3)n(C(=O)N(C)C)n2)CC1 [Entry 136, 4-(5-[(5-chlorothiophen-2-yl)methyl]amino-1-(dimethylcarbamoyl)-1H-pyrazol-3-yl)-N,N-dimethylpiperidine-1-carboxamide]
6 | < 100 | C=CCOC(=O)N1CCC(c2cc(NCc3ccc(Cl)s3)n(C(=O)C(C)(C)C)n2)C1 (stereo not shown) [Entry 256, prop-2-en-1-yl 3-(5-[(5-chlorothiophen-2-yl)methyl]amino-1-(2,2-dimethylpropanoyl)-1H-pyrazol-3-yl)pyrrolidine-1-carboxylate]
7 | 100 to 1000 | CC(C)(C)OC(=O)N1CCCC(C)(c2cc(NCc3ccc(Cl)s3)n(C(=O)C3(C)CCOCC3)n2)C1 (stereo not shown) [Entry 286, tert-butyl 3-(5-[(5-chlorothiophen-2-yl)methyl]amino-1-(4-methyloxane-4-carbonyl)-l H-pyrazol-3-yl)-3-methylpiperidine-1-carboxylate]
8 | < 100 | CC(C)(C)OC(=O)N1CCCC(C)(c2cc(NCc3ccc(Cl)s3)n(C(=O)C(C)(C)C)n2)C1 (stereo not shown) [Entry 278, tert-butyl 3-(5-[(5-chlorothiophen-2-yl)methyl]amino-1-(2,2-dimethylpropanoyl)-1H-pyrazol-3-yl)-3-methylpiperidine-1-carboxylate]
9 | > 100000 | CS(=O)(=O)N1C2CCC1CC(c1cc(NCc3ccc(Cl)s3)[nH]n1)C2 (stereo not shown) [Entry 226, N-[(5-chlorothiophen-2-yl)methyl]-3-8-methanesulfonyl-8-azabicyclo[3.2.1]octan-3-yl-1H-pyrazol-5-amine]
10 | < 100 | CC(C)(C)OC(=O)N1CCC(C)(c2cc(NCc3ccc(Cl)s3)n(C(=O)C(C)(C)CO)n2)CC1 [Entry 296, tert-butyl 4-(5-[(5-chlorothiophen-2-yl)methyl]amino-1-(3-hydroxy-2,2-dimethylpropanoyl)-1H-pyrazol-3-yl)-4-methylpiperidine-1-carboxylate]
11 | 100 to 1000 | CC1(C(=O)n2nc(C3CCCNC3)cc2NCc2ccc(Cl)s2)CCOCC1 (stereo not shown) [Entry 164, N-[(5-chlorothiophen-2-yl)methyl]-1-(4-methyloxane-4-carbonyl)-3-(piperidin-3-yl)-1H-pyrazol-5-amine]
12 | > 100000 | C=CCOC(=O)N1CCN(CC(F)(F)F)CC1c1cc(NCc2ccc(Cl)s2)[nH]n1 (stereo not shown) [Entry 248, prop-2-en-1-yl 2-(5-[(5-chlorothiophen-2-yl)methyl]amino-1H-pyrazol-3-yl)-4-(2,2,2-trifluoroethyl)piperazine-1-carboxylate]
13 | 1000 to 10000 | O=C(c1cccc2c1OCCO2)n1nc(C2CNC2)cc1NCc1ccc(Cl)s1 [Entry 126, 3-(azetidin-3-yl)-N-[(5-chlorothiophen-2-yl)methyl]-1-(2,3-dihydro-1,4-benzodioxine-5-carbonyl)-1H-pyrazol-5-amine; trifluoroacetic acid]
